The values that follow come from patent US20080113926A1, “9A-Carbamoyl-Y-Aminopropyl- And 9A-Thiocabamoyl-Y-Aminopropyl-Azalides With Antimalarial Activity” (priority 2005, published 2008).

The term IC50 denotes the concentration needed to halve the response being measured. Read a high IC50 as weaker potency in that assay.

Assay type in all cases: cell-based
The test system of assay [1] is Plasmodium falciparum clone CDC/Sierra Leone I (D-6). The assay can be described thus: In vitro antimalarial [3H]-hypoxanthine incorporation serial dilution assay, D6. To be noted: P. falciparum D6, parasites exposed for 72 hours; for IC50: Plasmodium falciparum. An excerpt:
(§1) The in vitro screens for intrinsic antimalarial activity were based on modifications of the procedures described by Desjardins R E, Canfield C J, Haynes J D, Chulay J D. (Quantitative assessment of antimalarial activity in vitro by a semiautomated microdilution technique. Antimicrob Agents Chemother. 1979 December; 16(6):710-8), Chulay J D, Haynes J D, Diggs C L. (Plasmodium falciparum: Assessment of in vitro growth by [3H]hypoxanthine incorporation. Exp. Parasitol. 1983 55:138-146), and Milhous W K, Weatherly N F, Bowdre J H, Desjardins R E. (In vitro activities of and mechanisms of resistance to antifol antimalarial drugs. Antimicrob Agents Chemother. 1985 April; 27(4):525-30). The system was limited to the assessment of the intrinsic activity against the erythrocytic asexual life cycle (blood schizontocides). Two Plasmodium falciparum clones from CDC/Indochina III (W-2) and CDC/Sierra Leone I (D-6) (Oduola A M, Weatherly N F, Bowdre J H, Desjardins R E. Plasmodium falciparum: cloning by single-erythrocyte micromanipulation and heterogeneity in vitro. Exp Parasitol. 1988 66(1):86-95) were used for all assays. TM91C235, a multiple drug resistant isolate from Thailand, was used for the prescreening assay. W-2 is resistant to chloroquine, quinine, and pyrimethamine and susceptible to mefloquine. D-6 tends to be more resistant to mefloquine and susceptible to chloroquine, quinine, and pyrimethamine. All documents cited in this paragraph are incorporated by reference in their entirety.
(§2) All parasites were maintained in continuous long term cultures in RPMI-1640 medium supplemented with 6% washed human A positive (A+) (erythrocytes, 25 mM Hepes, […], and 10% heat inactivated A+ human plasma or ALBUMAX® (lipid-rich bovine serum albumin; Invitrogen, Carlsbad, Calif.). All cultures and assays were conducted at 37° C. under an atmosphere of 5% CO2 and 5% O2, with a balance of N2.
(§3) The prescreening assay uses TM91C235 diluted at a 0.4% parasitemia in a 1% hematocrit in folic acid free and p-aminobenzoic acid free media RPMI-1640 and ALBUMAX®. One mg of the compound is typically dissolved in 100 μl of dimethyl sulfoxide (DMSO). The compound is further diluted in culture medium (FF) with ALBUMAX® for the first initial starting concentration. The rest of the stock drug solution was kept at −70° C. The isolate was preexposed, in duplicate, at three concentrations (25,000 ng/ml, 2,500 ng/ml, and 25 ng/ml) of the test compound for 48 hr in a 96-well microtiter plate (MTP) using the BIOMEK® 2000 automated laboratory workstation. Each MTP contains chloroquine as control to assess the relative activity of the compound and to monitor the response of TM91C235.
(§4) After the preincubation, [^3H]-hypoxanthine was added to each well of the MTP. (The assay relies on the incorporation of radiolabeled hypoxanthine by the parasites, which indicates reproduction, and inhibition of isotope incorporation was attributed to activity of known or candidate antimalarial drugs). After 72 hr of total incubation time, the MTP were frozen to lyse the erythrocytes and parasites. The parasite DNA was recovered by harvesting the lysate onto glass-fiber filter plates using a Packard FilterMate™ Cell Harvester. The radioactivity was counted on a Packard TopCount™ microplate scintillation counter. The results were recorded as counts per minutes (CPM) per well at each drug concentration divided by the arithmetic mean of the CPM from the three untreated infection parasite control wells.
(§5) The serial dilution assay was conducted using the same assay conditions and stock solution of the compound used for the preliminary screen, described above. Both the D-6 and the W-2 clones were used. The compounds were diluted two-fold over 11 different concentration ranges with a starting concentration that was based on the preliminary screen. […]

The test system of assay [2] is Plasmodium falciparum TM91C235. The assay can be described thus: In vitro antimalarial [3H]-hypoxanthine incorporation serial dilution assay, TM91C235. To be noted: P. falciparum TM91C235, parasites exposed for 72 hours; for IC50: Plasmodium falciparum.
In assay [3] the test system is Plasmodium falciparum clone CDC/Indochina III (W-2). In words: In vitro antimalarial [3H]-hypoxanthine incorporation serial dilution assay, W2. The following applies: P. falciparum W2, parasites exposed for 72 hours; for IC50: Plasmodium falciparum, W2, 72 h.
From the text: as §1, §2, §3, §4, §5

Values after ≈ are worked out from the molar mass of the structure shown.

`CC[C@H]1OC(=O)[C@H](C)[C@@H](O[C@H]2C[C@@](C)(OC)[C@@H](O)[C@H](C)O2)[C@H](C)[C@@H](O[C@@H]2O[C@H](C)C[C@H](N(C)C)[C@H]2O)[C@](C)(O)C[C@@H](C)CN(CCCN(CCC#N)C(=O)Nc2cccc3ccccc23)[C@H](C)[C@@H](O)[C@]1(C)O` [Compound 15]: the IC50 in assay [1] is 0.539 µg/mL (≈ 0.531 µM); in assay [2] it was 0.263 µg/mL (≈ 0.259 µM); in assay [3] it was 1.42 µg/mL (≈ 1.4 µM).
The matching figures for `CC[C@H]1OC(=O)[C@H](C)[C@@H](O[C@H]2C[C@@](C)(OC)[C@@H](O)[C@H](C)O2)[C@H](C)[C@@H](O[C@@H]2O[C@H](C)C[C@H](N(C)C)[C@H]2O)[C@](C)(O)C[C@@H](C)CN(CCCN(CCC#N)C(=O)Nc2cc(OC)c(OC)c(OC)c2)[C@H](C)[C@@H](O)[C@]1(C)O` [Compound 16]: 0.487 µg/mL (≈ 0.462 µM), 0.272 µg/mL (≈ 0.258 µM) and greater than 1.76 µg/mL.
The matching figures for `CC[C@H]1OC(=O)[C@H](C)[C@@H](O[C@H]2C[C@@](C)(OC)[C@@H](O)[C@H](C)O2)[C@H](C)[C@@H](O[C@@H]2O[C@H](C)C[C@H](N(C)C)[C@H]2O)[C@](C)(O)C[C@@H](C)CN(CCCNC(=O)NCc2ccccc2)[C@H](C)[C@@H](O)[C@]1(C)O` [Compound 17]: 0.566 µg/mL (≈ 0.612 µM), 0.278 µg/mL (≈ 0.3 µM) and 0.351 µg/mL (≈ 0.379 µM).
For the compound `CC[C@H]1OC(=O)[C@H](C)[C@@H](O[C@H]2C[C@@](C)(OC)[C@@H](O)[C@H](C)O2)[C@H](C)[C@@H](O[C@@H]2O[C@H](C)C[C@H](N(C)C)[C@H]2O)[C@](C)(O)C[C@@H](C)CN(CCCN(CCC#N)C(=O)NCc2ccccc2)[C@H](C)[C@@H](O)[C@]1(C)O` [Compound 18], the IC50 in assay [1] came to 0.776 µg/mL (≈ 0.793 µM); in assay [2], 0.522 µg/mL (≈ 0.534 µM); in assay [3] it was 0.405 µg/mL (≈ 0.414 µM).
For `CC[C@H]1OC(=O)[C@H](C)[C@@H](O[C@H]2C[C@@](C)(OC)[C@@H](O)[C@H](C)O2)[C@H](C)[C@@H](O[C@@H]2O[C@H](C)C[C@H](N(C)C)[C@H]2O)[C@](C)(O)C[C@@H](C)CN(CCCN(CCC#N)C(=O)NC(C)C)[C@H](C)[C@@H](O)[C@]1(C)O` [Compound 19] the same measures were greater than 0.797 µg/mL, 1.19 µg/mL (≈ 1.28 µM) and greater than 1.76 µg/mL.
The matching figures for `CC[C@H]1OC(=O)[C@H](C)[C@@H](O[C@H]2C[C@@](C)(OC)[C@@H](O)[C@H](C)O2)[C@H](C)[C@@H](O[C@@H]2O[C@H](C)C[C@H](N(C)C)[C@H]2O)[C@](C)(O)C[C@@H](C)CN(CCCNC(=O)NS(=O)(=O)c2ccc(C)cc2)[C@H](C)[C@@H](O)[C@]1(C)O` [Compound 20]: greater than 0.797 µg/mL, 1.06 µg/mL (≈ 1.07 µM) and greater than 1.76 µg/mL.
For `CC[C@H]1OC(=O)[C@H](C)[C@@H](O[C@H]2C[C@@](C)(OC)[C@@H](O)[C@H](C)O2)[C@H](C)[C@@H](O[C@@H]2O[C@H](C)C[C@H](N(C)C)[C@H]2O)[C@](C)(O)C[C@@H](C)CN(CCCNC(=O)NS(=O)(=O)c2ccccc2C)[C@H](C)[C@@H](O)[C@]1(C)O` [Compound 21] the same measures were 0.427 µg/mL (≈ 0.432 µM), greater than 1.62 µg/mL and 1 µg/mL (≈ 1.01 µM).
In the case of `CC[C@H]1OC(=O)[C@H](C)[C@@H](O[C@H]2C[C@@](C)(OC)[C@@H](O)[C@H](C)O2)[C@H](C)[C@@H](O[C@@H]2O[C@H](C)C[C@H](N(C)C)[C@H]2O)[C@](C)(O)C[C@@H](C)CN(CCCNC(=O)NS(=O)(=O)c2ccccc2Cl)[C@H](C)[C@@H](O)[C@]1(C)O` [Compound 22], the IC50 in assay [1] is greater than 0.797 µg/mL; in assay [2], 1.53 µg/mL (≈ 1.52 µM); in assay [3], greater than 1.76 µg/mL.
The matching figures for `CC[C@H]1OC(=O)[C@H](C)[C@@H](O[C@H]2C[C@@](C)(OC)[C@@H](O)[C@H](C)O2)[C@H](C)[C@@H](O[C@@H]2O[C@H](C)C[C@H](N(C)C)[C@H]2O)[C@](C)(O)C[C@@H](C)CN(CCCN(CCC#N)C(=O)Nc2ccccc2C(F)(F)F)[C@H](C)[C@@H](O)[C@]1(C)O` [Compound 23]: 0.535 µg/mL (≈ 0.518 µM), 0.153 µg/mL (≈ 0.148 µM) and 0.0626 µg/mL (≈ 0.0606 µM).
Regarding `CC[C@H]1OC(=O)[C@H](C)[C@@H](O[C@H]2C[C@@](C)(OC)[C@@H](O)[C@H](C)O2)[C@H](C)[C@@H](O[C@@H]2O[C@H](C)C[C@H](N(C)C)[C@H]2O)[C@](C)(O)C[C@@H](C)CN(CCCN(CCC#N)C(=O)Nc2cc(OC)c(OC)c(OC)c2)[C@H](C)[C@@H](O)[C@]1(C)O` [Compound 24], the “IC50 D6” value in assay [1] turned out to be 0.4872 µg/mL (≈ 0.462 µM). Moreover, the “IC50 TM91C235” value in assay [2] was determined as 0.2719 µg/mL (≈ 0.258 µM). The “IC50 W2” value in assay [3] was found to be 1.7881 µg/mL (≈ 1.7 µM).
As for `CC[C@H]1OC(=O)[C@H](C)[C@@H](O)[C@H](C)[C@@H](O[C@@H]2O[C@H](C)C[C@H](N(C)C)[C@H]2O)[C@](C)(O)C[C@@H](C)CN(CCCNC(=S)NCc2ccccc2)[C@H](C)[C@@H](O)[C@]1(C)O` [Compound 25], the figures for the IC50 in assay [1], in assay [2] and in assay [3] were greater than 0.797 µg/mL, 1.21 µg/mL (≈ 1.54 µM) and greater than 1.76 µg/mL, respectively.
The matching figures for `CC[C@H]1OC(=O)[C@H](C)[C@@H](O)[C@H](C)[C@@H](O[C@@H]2O[C@H](C)C[C@H](N(C)C)[C@H]2O)[C@](C)(O)C[C@@H](C)CN(CCCN(CCC#N)C(=O)NC(C)c2cccc3ccccc23)[C@H](C)[C@@H](O)[C@]1(C)O` (stereo partly drawn) [Compound 26]: greater than 0.797 µg/mL, 0.39 µg/mL (≈ 0.441 µM) and 0.361 µg/mL (≈ 0.408 µM).
For `CC[C@H]1OC(=O)[C@H](C)[C@@H](O)[C@H](C)[C@@H](O[C@@H]2O[C@H](C)C[C@H](N(C)C)[C@H]2O)[C@](C)(O)C[C@@H](C)CN(CCCNC(=O)Nc2ccc3ccccc3c2)[C@H](C)[C@@H](O)[C@]1(C)O` [Compound 27] the same measures were 0.716 µg/mL (≈ 0.891 µM), 0.312 µg/mL (≈ 0.389 µM) and 0.467 µg/mL (≈ 0.582 µM).
Regarding `CC[C@H]1OC(=O)[C@H](C)[C@@H](O)[C@H](C)[C@@H](O[C@@H]2O[C@H](C)C[C@H](N(C)C)[C@H]2O)[C@](C)(O)C[C@@H](C)CN(CCCNC(=S)NCCCc2ccccc2)[C@H](C)[C@@H](O)[C@]1(C)O` [Compound 28], the IC50 in assay [1] was 0.864 µg/mL (≈ 1.06 µM); in assay [2] it was 0.255 µg/mL (≈ 0.314 µM); in assay [3], 0.41 µg/mL (≈ 0.506 µM).
The matching figures for `CC[C@H]1OC(=O)[C@H](C)[C@@H](O)[C@H](C)[C@@H](O[C@@H]2O[C@H](C)C[C@H](N(C)C)[C@H]2O)[C@](C)(O)C[C@@H](C)CN(CCCNC(=S)Nc2cccc3ccccc23)[C@H](C)[C@@H](O)[C@]1(C)O` [Compound 29]: 0.954 µg/mL (≈ 1.16 µM), 0.297 µg/mL (≈ 0.363 µM) and 0.172 µg/mL (≈ 0.21 µM).
The matching figures for `CC[C@H]1OC(=O)[C@H](C)[C@@H](O)[C@H](C)[C@@H](O[C@@H]2O[C@H](C)C[C@H](N(C)C)[C@H]2O)[C@](C)(O)C[C@@H](C)CN(CCCNC(=O)Nc2cccc3ccccc23)[C@H](C)[C@@H](O)[C@]1(C)O` [Compound 30]: greater than 0.797 µg/mL, 0.508 µg/mL (≈ 0.633 µM) and 0.471 µg/mL (≈ 0.586 µM).
